The test system of data set [1] is promyelocytic leukemia (HL-60) cells. Kind of data set: Antiproliferative assay (MTT reduction), HL-60. The class given is cell-based. Particulars: Homo sapiens, 72 h, HL-60 promyelocytic leukemia cells, 3 days treatment, read-out: IC50 ± SD, HL-60. The procedure:
(§1) All human cell lines used in this work were purchased from the American Type Culture Collection (ATCC, Manasas, VA, USA). […] Promyelocytic leukemia HL-60 cells (CCL-240) were grown in suspension in RPM1 medium containing 1 mM sodium pyruvate and 2.0 g/L sodium bicarbonate. All media were supplemented with 10% heat-inactivated FBS, 100 IU/mL penicillin and 100 µg/mL streptomycin. […] For the antiproliferative assay, adherent cells were plated at a density of 5 × 10^4 cells/mL and HL-60 cells at 30 × 10^4 cells/mL. Cells were seeded in 96-well plates (100 µL/well). One day after seeding, cells were treated with medium containing the compounds at concentrations ranging from 0 up to 100 µM during 3 days. The compounds were dissolved in DMSO (1% final concentration) and complete medium. Untreated cells (medium containing 1% DMSO) were used as 100% viability controls. […] Each concentration was tested in sextuplicate and experiments were repeated 2 times. Cell viability was determined by means of the MTT reduction assay at the end of the incubation with the products.
In general terms: Formazan colour is commonly taken as a measure of viable cells.

In data set [2] the test system is normal lung fibroblasts (MRC-5). Kind of data set: Antiproliferative assay (MTT reduction), MRC-5. The class given is cell-based, human. As to conditions: Homo sapiens, MRC5, 72 h; MRC-5 normal lung fibroblasts, 3 days treatment, MTT; read-out: IC50 ± SD, MRC-5. The method, then: as §1
Data set [3] relates to gastric epithelial adenocarcinoma (AGS) cells. Kind of data set: Antiproliferative assay (MTT reduction), AGS. The class given is cell-based. Particulars: Homo sapiens, 72 h, 3 days treatment, read-out: IC50 ± SD, AGS. The method, then: (§2) All human cell lines used in this work were purchased from the American Type Culture Collection (ATCC, Manasas, VA, USA). Normal lung MRC-5 fibroblasts (CCL-171), SK-MES-1 lung cancer cells (HTB-58) and J82 bladder carcinoma cells (HTB-1) were grown as monolayers in minimum essential Eagle medium (MEM) with Earles’s salts, 2 mM L-glutamine and 1.5 g/L sodium bicarbonate. Gastric adenocarcinoma AGS cells (CRL-1739) were grown as monolayers in Ham F-12 medium containing 1 mM L-glutamine and 1.5 g/L sodium bicarbonate. Promyelocytic leukemia HL-60 cells (CCL-240) were grown in suspension in RPM1 medium containing 1 mM sodium pyruvate and 2.0 g/L sodium bicarbonate. All media were supplemented with 10% heat-inactivated FBS, 100 IU/mL penicillin and 100 µg/mL streptomycin. Cells were grown in a humidified incubator with 5% CO2 in air at 37 °C. For the antiproliferative assay, adherent cells were plated at a density of 5 × 10^4 cells/mL and HL-60 cells at 30 × 10^4 cells/mL. Cells were seeded in 96-well plates (100 µL/well). One day after seeding, cells were treated with medium containing the compounds at concentrations ranging from 0 up to 100 µM during 3 days. The compounds were dissolved in DMSO (1% final concentration) and complete medium. Untreated cells (medium containing 1% DMSO) were used as 100% viability controls. […] Each concentration was tested in sextuplicate and experiments were repeated 2 times. Cell viability was determined by means of the MTT reduction assay at the end of the incubation with the products. The results were transformed to percentage of controls and the IC50 values were graphically obtained from the dose-response curves.

Data set [4] concerns lung cancer (SK-MES-1) cells. Kind of data set: Antiproliferative assay (MTT reduction), SK-MES-1. It is filed as cell-based. Particulars: Homo sapiens, 72 h, SK-MES-1 lung cancer cells, 3 days treatment, read-out: IC50 ± SD, SK-MES-1. The method, then:
as §1

Data set [5] relates to bladder carcinoma (J82) cells. Kind of data set: Antiproliferative assay (MTT reduction), J82. The class given is cell-based. Particulars: Homo sapiens, 72 h, 3 days treatment, read-out: IC50 ± SD, J82. The method, then: as §2
The subject of data set [6] is MRC-5, AGS, HL-60, SK-MES-1 and J82 cells. Kind of data set: Antiproliferative assay (MTT reduction), all cell lines together. It is filed as cell-based, human. Particulars: Homo sapiens; range over MRC-5, AGS, SK-MES-1, J82 and HL-60. The procedure:
as §2

SMILES strings stand for the structures.

A word on the IC50: it is the concentration that gives 50% inhibition. In general, melting point refers to the temperature, or range, at which the solid turns liquid. Consider `Cc1ccc(S(=O)(=O)n2cc(CCC(=O)O[C@H]3CC[C@@]4(C)C(CC[C@]5(C)C4CC=C4[C@@H]6CC(C)(C)CC[C@]6(C(=O)O)CC[C@]45C)C3(C)C)nn2)cc1` (some centres unmarked) [Compound 11], for which the melting point worked out at 163 °C. Moreover, the half-maximal inhibitory concentration (IC50) in data set [1] worked out at 15.9 ± 1.5 µM. Also, the IC50 in data set [2] stood at 14.1 ± 0.8 µM. In addition, the IC50 in data set [3] was determined as 10.8 ± 0.6 µM. Moreover, the IC50 in data set [4] was determined as 21.4 ± 1.3 µM. In data set [5], the IC50 came out at 47.1 ± 2.9 µM. In data set [6], this compound showed an IC50 of 10.8 to 47.1 µM.
Compound `Cc1ccc(S(=O)(=O)n2cc(CCCC(=O)O[C@H]3CC[C@@]4(C)C(CC[C@]5(C)C4CC=C4[C@@H]6CC(C)(C)CC[C@]6(C(=O)O)CC[C@]45C)C3(C)C)nn2)cc1` (some centres unmarked) [Compound 15] registered a melting point of 186 °C. Moreover, in data set [1], the IC50 worked out at 11.5 ± 1 µM. In data set [2], the IC50 was 17.1 ± 1 µM. Moreover, the IC50 in data set [3] worked out at 22.2 ± 1.6 µM. In addition, in data set [4], the concentration for half-maximal inhibition (IC50) is 11.9 ± 0.6 µM. The concentration for half-maximal inhibition (IC50) in data set [5] came out at 14.3 ± 0.6 µM. For the same compound, the IC50 in data set [6] was in the range of 11.5 to 22.2 µM.

(Values after article PMC6270232, “1,2,3-Triazole-Substituted Oleanolic Acid Derivatives: Synthesis and Antiproliferative Activity” (Molecules, 2013).)
